{
  "source": "patent US20220133729A1",
  "about": "“COMPOSITIONS AND METHODS FOR TREATING BASAL FOREBRAIN DISEASE” (EIP Pharma, Inc., priority 2019, published 2022)",
  "key": {"[1]": {"tested_on": "Ts2 mice", "experiment": "Ts2 mice treated 28 days with neflamapimod; medial septal nucleus ChAT+ neurons quantitated", "format": "in vivo", "conditions": "3 mg/kg twice-daily", "protocol": "Wild-type (WT) or Ts2 mice treated for 28 days, twice-daily, with vehicle (1% PluronicF108) or 3 mg/kg neflamapimod in vehicle (n=8-10 per group; 1:1 female/male). Treatment initiated at 4.7-6.4 months of age, when cholinergic neuronal loss is developing in Ts2 mice. Cortical Rab5+ endosomal number and size, and medial septal nucleus (MSN) cholineacetyltransferase (ChAT)+ neurons quantitated."}, "[2]": {"tested_on": "subjects with DLB", "experiment": "Phase 2 randomized, double-blind, placebo-controlled study of neflamapimod in subjects with DLB", "format": "in vivo, human", "conditions": "DLB patients", "text": "A Phase 2, multi-center, randomized, double-blind, placebo-controlled study is run of neflamapimod versus matching placebo (randomized 1:1) administered with food for 16 weeks in subjects with DLB. The primary objective is to evaluate the effect of neflamapimod on cognitive function as assessed in a study-specific COGSTATE Neuropsychological Test Battery (NTB). Secondary endpoints include the Clinical Dementia Rating Scale-Sum of Boxes (CDR-SB), Mini-Mental State Examination (MMSE), Neuropsychiatric Inventory (NPI-10), Timed Up and Go Test, and electroencephalogram (EEG) as a potential biomarker for DLB.\nNeflamapimod 40 mg capsules are administered orally, BID or TID with food for 16 weeks; subjects will follow the BID regimen if weighing <80 kg or the TID regimen if weighing ≥80 kg. A placebo comparator is 40 mg matching placebo capsules administered orally, BID or TID with food for 16 weeks; subjects will follow the BID regimen if weighing <80 kg or the TID regimen if weighing ≥80 kg.\nA primary outcome measure is a composite score of a study-specific COGSTATE Neurological Test Battery (NTB) including the COGSTATE Letter Fluency Test and Category Fluency Test at 16 weeks. A change from Baseline to Week 16 in the composite score of a study-specific Cog-state Neurological Test Battery (NTB), including assessments of attention, executive function, and visuospatial function in neflamapimod treated-subjects as compared to the placebo-treated subjects, are analyzed using the Mixed Model Repeated Measures (MMRM) analysis method. The following six tests are included in the composite: (1) COGSTATE Detection test (DET), (2) COGSTATE Identification test (IDN), (3) COGSTATE One Card Learning test (OCL), (4) COGSTATE One Back test (ONB), (5) Letter Fluency Test, (6) Category Fluency Test (CFT). Each score on the individual tests will be converted to a z-score, and then a total z-score will be calculated, in which each test is weighted equally. The change in total z-score in neflamapimod vs. placebo-recipients is analyzed. […]"}},
  "data": [
    {"smiles": "O=c1ncn2nc(Sc3ccc(F)cc3F)ccc2c1-c1c(Cl)cccc1Cl", "note": "[neflamapimod]", "values": [
      {"measurement": "cholinergic neuron degeneration in the medial septal nucleus", "setting": "[1]", "result": "ameliorated"},
      {"measurement": "morphology (size) of ChAT+ neurons in the medial septal nucleus (MSN)", "setting": "[1]; oral", "result": "normalizes"},
      {"measurement": "ChAT-positive neuron number in the medial septal nucleus", "setting": "[1]; oral, stereological quantification", "result": "normalizes"},
      {"measurement": "Mean change from baseline to Week 8, MMSE", "setting": "[2]; 40 mg TID dosing regimen, increase represents improvement, p=0.033 vs placebo", "result": "+1.07"},
      {"measurement": "Mean change from baseline to Week 4, Letter Fluency Test (LFT)", "setting": "[2]; 40 mg capsules BID or TID, increase represents improvement, p=0.027 vs placebo, preliminary assessment", "result": "+3.0"},
      {"measurement": "Mean change from baseline to Week 4, COGSTATE Detection test (DET)", "setting": "[2]; 40 mg capsules BID or TID, reduction represents improvement, p=0.031 vs placebo, preliminary assessment", "result": "−0.024"}
    ]}
  ]
}
